Data from paper PMC3818834 (2013).

Assays:
[1] = system: CA-70 (DNA, aptamer) GGTCAGCACGCTCCGGACTTGGGTGGGTGGGTTGGGGTACGGTGCGTAATGTGTCGCTGAGCCTGCCAAC; assay: fluorescence titration; settings: 138 mM NaCl, 2.7 mM KCl, 2.5 mM MgCl2, 10 mM PBS pH 7.4, 0.05% TWEEN 20, 25 °C
[2] = system: CA-40 (DNA, aptamer) ACGCTCCGGACTTGGGTGGGTGGGTTGGGGTACGGTGCGT; assay: fluorescence titration; settings: 138 mM NaCl, 2.7 mM KCl, 2.5 mM MgCl2; 10 mM PBS pH 7.4, 0.05% TWEEN 20, 25 °C; compound 1 µM; 1:1 assumed
[3] = system: CA-20 (DNA, aptamer) TGGGTGGGTGGGTTGGGGTA; assay: fluorescence titration; settings: 138 mM NaCl, 2.7 mM KCl, 2.5 mM MgCl2; 10 mM PBS pH 7.4, 0.05% TWEEN 20, 25 °C; compound 1 µM; nucleic acid up to 10 µM
[4] = system: CA-19 (DNA, aptamer) GGGTGGGTGGGTTGGGGTA; assay: fluorescence titration; settings: 138 mM NaCl, 2.7 mM KCl, 2.5 mM MgCl2; 10 mM PBS pH 7.4, 0.05% TWEEN 20, 25 °C; compound 1 µM; nucleic acid up to 10 µM
[5] = system: CA-18A (DNA, aptamer) TGGGTGGGTGGGTTGGGG; assay: fluorescence titration; settings: 138 mM NaCl, 2.7 mM KCl, 2.5 mM MgCl2, 10 mM PBS pH 7.4, 0.05% TWEEN 20, 25 °C, compound 1 µM
[6] = system: CA-18B (DNA, aptamer) GGGTGGGTGGGTTGGGGT; assay: fluorescence titration; settings: 138 mM NaCl, 2.7 mM KCl, 2.5 mM MgCl2; 10 mM PBS pH 7.4, 0.05% TWEEN 20, 25 °C; compound 1 µM; nucleic acid up to 10 µM
[7] = system: CA-17 (DNA, aptamer) GGGTGGGTGGGTTGGGG; assay: fluorescence titration; settings: 138 mM NaCl, 2.7 mM KCl, 2.5 mM MgCl2, 10 mM PBS pH 7.4, 0.05% TWEEN 20, 25 °C, compound 1 µM
[8] = system: CA-16 (DNA, aptamer) GGGTGGGTGGGTTGGG; assay: fluorescence titration; settings: 138 mM NaCl, 2.7 mM KCl, 2.5 mM MgCl2, 10 mM PBS pH 7.4, 0.05% TWEEN 20, 25 °C, compound 1 µM
[9] = system: CA-16 (DNA, aptamer) GGGTGGGTGGGTTGGG; assay: CD melting at 265 nm; settings: 138 mM NaCl, 2.7 mM KCl, 2.5 mM MgCl2; 10 mM PBS pH 7.4; compound 10 µM, nucleic acid 10 µM; Tm without compound 73 °C
[10] = system: CA-23A (DNA, aptamer) ACTTGGGTGGGTGGGTTGGGGTA; assay: fluorescence titration; settings: 138 mM NaCl, 2.7 mM KCl, 2.5 mM MgCl2; 10 mM PBS pH 7.4, 0.05% TWEEN 20, 25 °C; compound 1 µM; 1:1 assumed
[11] = system: CA-23B (DNA, aptamer) TTTTGGGTGGGTGGGTTGGGGTA; assay: fluorescence titration; settings: 138 mM NaCl, 2.7 mM KCl, 2.5 mM MgCl2; 10 mM PBS pH 7.4, 0.05% TWEEN 20, 25 °C; compound 1 µM; nucleic acid up to 10 µM
[12] = system: CA-19 (DNA, aptamer) GGGTGGGTGGGTTGGGGTA; assay: fluorescence polarization; settings: 138 mM NaCl, 2.7 mM KCl, 2.5 mM MgCl2; 10 mM PBS pH 7.4, 0.05% TWEEN 20, 25 °C; compound 1 µM; nucleic acid up to 10 µM
[13] = system: CA-16 (DNA, aptamer) GGGTGGGTGGGTTGGG; assay: fluorescence polarization; settings: 138 mM NaCl, 2.7 mM KCl, 2.5 mM MgCl2; 10 mM PBS pH 7.4, 0.05% TWEEN 20, 25 °C; compound 1 µM

SMILES | Kd ([1]; compound 1 µM, 1:1 assumed) | Kd [2] | Kd [3] | Kd [4] | Kd [6] | Kd ([1]; nucleic acid up to 10 µM) | other results
CC[C@@]1(O)C(=O)OCc2c1cc1n(c2=O)Cc2c-1nc1ccccc1c2CN1CCC(N)CC1 | 3.6 ± 0.2 µM | 3.0 ± 0.2 µM | > 10 µM | > 10 µM | > 10 µM |  | Kd ([5]; 1:1 assumed): 3.4 ± 0.3 µM; Kd ([7]; 1:1 assumed): 8.9 ± 1.0 µM; Kd ([8]; 1:1 assumed): 2.7 ± 0.3 µM
CC[C@@]1(O)C(=O)OCc2c1cc1n(c2=O)Cc2c-1nc1ccccc1c2CN1CCC(NC(=O)COCC(=O)NCCOCCOCCOCCOCCOCCOCCOCCOCCOCCOCCOCCN)CC1 | 1.8 ± 0.3 µM | 3.0 ± 0.4 µM | > 10 µM | > 10 µM | > 10 µM |  | binding [9]: yes; Kd [10]: 2.1 ± 0.9 µM; Kd [11]: > 10 µM; Kd ([5]; 1:1 assumed): 6.0 ± 0.8 µM; Kd ([7]; 1:1 assumed): 8.1 ± 0.9 µM; Kd [8]: 1.8 ± 0.3 µM; binding [12]: no; binding [13]: yes
O=C(O)Cc1ccc2[nH]c3ccccc3c(=O)c2c1 |  |  |  |  |  | > 10 µM | 
CC[C@@]1(O)C(=O)OCc2c1cc1n(c2=O)Cc2cc3ccccc3nc2-1 | 4.6 ± 0.3 µM | 5.6 ± 0.5 µM | > 10 µM | > 10 µM | > 10 µM |  | Kd ([5]; nucleic acid up to 10 µM): > 10 µM; Kd ([7]; nucleic acid up to 10 µM): > 10 µM; Kd ([8]; 1:1 assumed): 4.2 ± 0.4 µM
Cc1cc2nc3c(=O)[nH]c(=O)nc-3n(C[C@H](O)[C@H](O)[C@H](O)COP(=O)(O)O)c2cc1C |  |  |  |  |  |  | Kd [1]: 8.5 µM
O=c1c2ccccc2[nH]c2ccccc12 |  |  |  |  |  | > 10 µM | 
O=C1OC2(c3ccc(O)cc3Oc3cc(O)ccc32)c2ccccc21 |  |  |  |  |  | > 10 µM | 
